Measurements as given in ChEMBL document CHEMBL5291721, “A preclinical secondary pharmacology resource illuminates target-adverse drug reaction associations of marketed drugs” (Nat Commun, 2023).

Columns and labels:
Androgen receptor [1] = target: T1, Androgen receptor (Rattus norvegicus, UniProt P15207); type: functional
T1 sequence (P15207 whole entry): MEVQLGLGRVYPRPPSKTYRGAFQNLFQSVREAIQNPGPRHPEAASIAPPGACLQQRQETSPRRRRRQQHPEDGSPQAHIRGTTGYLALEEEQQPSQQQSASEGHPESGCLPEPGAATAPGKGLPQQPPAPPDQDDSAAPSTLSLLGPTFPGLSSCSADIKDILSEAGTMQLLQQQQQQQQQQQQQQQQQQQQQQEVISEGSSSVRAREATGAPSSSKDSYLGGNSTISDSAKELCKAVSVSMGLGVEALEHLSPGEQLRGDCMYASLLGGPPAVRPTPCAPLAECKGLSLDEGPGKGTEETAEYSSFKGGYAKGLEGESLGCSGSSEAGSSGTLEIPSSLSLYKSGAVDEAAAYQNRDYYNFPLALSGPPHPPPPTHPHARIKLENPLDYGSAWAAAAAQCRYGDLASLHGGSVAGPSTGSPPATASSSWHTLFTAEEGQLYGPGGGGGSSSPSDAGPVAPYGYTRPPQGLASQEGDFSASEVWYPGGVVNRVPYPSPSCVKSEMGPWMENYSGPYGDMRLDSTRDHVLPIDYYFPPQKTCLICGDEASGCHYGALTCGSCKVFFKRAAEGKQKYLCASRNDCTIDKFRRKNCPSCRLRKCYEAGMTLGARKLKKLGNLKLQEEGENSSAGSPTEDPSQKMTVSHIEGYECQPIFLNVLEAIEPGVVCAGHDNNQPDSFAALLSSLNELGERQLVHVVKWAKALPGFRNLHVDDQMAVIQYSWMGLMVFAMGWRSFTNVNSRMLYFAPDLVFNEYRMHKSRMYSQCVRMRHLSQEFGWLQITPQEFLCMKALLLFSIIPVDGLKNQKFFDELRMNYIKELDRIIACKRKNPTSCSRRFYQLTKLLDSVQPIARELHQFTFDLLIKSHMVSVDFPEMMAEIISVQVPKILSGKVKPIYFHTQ

[2] = target: Gamma-aminobutyric acid type B receptor subunit 1 (Homo sapiens, UniProt Q9UBS5)
[3] = target: Voltage-dependent N-type calcium channel subunit alpha-1B (Rattus norvegicus, UniProt Q02294); type: functional
[4] = target: T2, Muscarinic acetylcholine receptor M5 (Homo sapiens, UniProt P08912)
T2 sequence (P08912 whole entry): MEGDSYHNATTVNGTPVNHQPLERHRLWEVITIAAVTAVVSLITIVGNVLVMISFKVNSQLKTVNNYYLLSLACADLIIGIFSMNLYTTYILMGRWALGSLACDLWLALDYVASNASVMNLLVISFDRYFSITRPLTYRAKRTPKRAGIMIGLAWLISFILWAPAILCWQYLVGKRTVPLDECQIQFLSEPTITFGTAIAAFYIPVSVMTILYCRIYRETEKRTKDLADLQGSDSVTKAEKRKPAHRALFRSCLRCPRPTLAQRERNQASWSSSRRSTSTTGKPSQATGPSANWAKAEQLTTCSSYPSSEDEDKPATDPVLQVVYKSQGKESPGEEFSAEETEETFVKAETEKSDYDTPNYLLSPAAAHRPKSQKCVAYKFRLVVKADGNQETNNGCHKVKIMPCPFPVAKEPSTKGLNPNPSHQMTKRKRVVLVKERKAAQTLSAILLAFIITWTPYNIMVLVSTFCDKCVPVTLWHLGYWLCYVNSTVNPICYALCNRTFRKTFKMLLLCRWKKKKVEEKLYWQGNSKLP

[5] = target: 5-hydroxytryptamine receptor 6 (Homo sapiens, UniProt P50406)
D(1A) dopamine receptor = D(1A) dopamine receptor (Homo sapiens, UniProt P21728)
Cannabinoid receptor 1 = Cannabinoid receptor 1 (Homo sapiens, UniProt P21554); type: functional
[6] = target: 5-hydroxytryptamine receptor 7 (Homo sapiens, UniProt P34969)
[7] = target: Beta-3 adrenergic receptor (Homo sapiens, UniProt P13945)
Histamine H1 receptor = Histamine H1 receptor (Homo sapiens, UniProt P35367); type: functional, cell-based
Histamine H2 receptor = Histamine H2 receptor (Homo sapiens, UniProt P25021)
[8] = target: T3, Alpha-2A adrenergic receptor (Homo sapiens, UniProt P08913)
T3 sequence (P08913 whole entry): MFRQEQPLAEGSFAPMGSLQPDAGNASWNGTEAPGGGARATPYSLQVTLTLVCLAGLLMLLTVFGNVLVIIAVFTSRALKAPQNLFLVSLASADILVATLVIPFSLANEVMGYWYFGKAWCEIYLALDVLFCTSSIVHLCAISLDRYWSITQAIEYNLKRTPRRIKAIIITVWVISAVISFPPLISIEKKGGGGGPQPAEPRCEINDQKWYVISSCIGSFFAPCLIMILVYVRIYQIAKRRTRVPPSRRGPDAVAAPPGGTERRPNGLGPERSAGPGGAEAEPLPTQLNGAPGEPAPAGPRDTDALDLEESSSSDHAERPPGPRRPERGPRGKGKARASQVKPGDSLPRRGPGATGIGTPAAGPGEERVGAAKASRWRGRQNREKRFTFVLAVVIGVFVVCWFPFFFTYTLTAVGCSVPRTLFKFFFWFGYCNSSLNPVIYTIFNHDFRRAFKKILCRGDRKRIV

[9] = target: Sodium channel protein type 5 subunit alpha (Homo sapiens, UniProt Q14524); type: functional, cell-based
Androgen receptor [10] = target: T1, Androgen receptor
[11] = target: Gamma-aminobutyric acid receptor subunit alpha-1/alpha-2/beta-2/gamma-2 (Homo sapiens, UniProt P14867+P18507+P47869+P47870); type: functional, cell-based
Also: assay procedure not described here.

Voltage-dependent N-type calcium channel subunit alpha-1B, sequence (Q02294 whole entry): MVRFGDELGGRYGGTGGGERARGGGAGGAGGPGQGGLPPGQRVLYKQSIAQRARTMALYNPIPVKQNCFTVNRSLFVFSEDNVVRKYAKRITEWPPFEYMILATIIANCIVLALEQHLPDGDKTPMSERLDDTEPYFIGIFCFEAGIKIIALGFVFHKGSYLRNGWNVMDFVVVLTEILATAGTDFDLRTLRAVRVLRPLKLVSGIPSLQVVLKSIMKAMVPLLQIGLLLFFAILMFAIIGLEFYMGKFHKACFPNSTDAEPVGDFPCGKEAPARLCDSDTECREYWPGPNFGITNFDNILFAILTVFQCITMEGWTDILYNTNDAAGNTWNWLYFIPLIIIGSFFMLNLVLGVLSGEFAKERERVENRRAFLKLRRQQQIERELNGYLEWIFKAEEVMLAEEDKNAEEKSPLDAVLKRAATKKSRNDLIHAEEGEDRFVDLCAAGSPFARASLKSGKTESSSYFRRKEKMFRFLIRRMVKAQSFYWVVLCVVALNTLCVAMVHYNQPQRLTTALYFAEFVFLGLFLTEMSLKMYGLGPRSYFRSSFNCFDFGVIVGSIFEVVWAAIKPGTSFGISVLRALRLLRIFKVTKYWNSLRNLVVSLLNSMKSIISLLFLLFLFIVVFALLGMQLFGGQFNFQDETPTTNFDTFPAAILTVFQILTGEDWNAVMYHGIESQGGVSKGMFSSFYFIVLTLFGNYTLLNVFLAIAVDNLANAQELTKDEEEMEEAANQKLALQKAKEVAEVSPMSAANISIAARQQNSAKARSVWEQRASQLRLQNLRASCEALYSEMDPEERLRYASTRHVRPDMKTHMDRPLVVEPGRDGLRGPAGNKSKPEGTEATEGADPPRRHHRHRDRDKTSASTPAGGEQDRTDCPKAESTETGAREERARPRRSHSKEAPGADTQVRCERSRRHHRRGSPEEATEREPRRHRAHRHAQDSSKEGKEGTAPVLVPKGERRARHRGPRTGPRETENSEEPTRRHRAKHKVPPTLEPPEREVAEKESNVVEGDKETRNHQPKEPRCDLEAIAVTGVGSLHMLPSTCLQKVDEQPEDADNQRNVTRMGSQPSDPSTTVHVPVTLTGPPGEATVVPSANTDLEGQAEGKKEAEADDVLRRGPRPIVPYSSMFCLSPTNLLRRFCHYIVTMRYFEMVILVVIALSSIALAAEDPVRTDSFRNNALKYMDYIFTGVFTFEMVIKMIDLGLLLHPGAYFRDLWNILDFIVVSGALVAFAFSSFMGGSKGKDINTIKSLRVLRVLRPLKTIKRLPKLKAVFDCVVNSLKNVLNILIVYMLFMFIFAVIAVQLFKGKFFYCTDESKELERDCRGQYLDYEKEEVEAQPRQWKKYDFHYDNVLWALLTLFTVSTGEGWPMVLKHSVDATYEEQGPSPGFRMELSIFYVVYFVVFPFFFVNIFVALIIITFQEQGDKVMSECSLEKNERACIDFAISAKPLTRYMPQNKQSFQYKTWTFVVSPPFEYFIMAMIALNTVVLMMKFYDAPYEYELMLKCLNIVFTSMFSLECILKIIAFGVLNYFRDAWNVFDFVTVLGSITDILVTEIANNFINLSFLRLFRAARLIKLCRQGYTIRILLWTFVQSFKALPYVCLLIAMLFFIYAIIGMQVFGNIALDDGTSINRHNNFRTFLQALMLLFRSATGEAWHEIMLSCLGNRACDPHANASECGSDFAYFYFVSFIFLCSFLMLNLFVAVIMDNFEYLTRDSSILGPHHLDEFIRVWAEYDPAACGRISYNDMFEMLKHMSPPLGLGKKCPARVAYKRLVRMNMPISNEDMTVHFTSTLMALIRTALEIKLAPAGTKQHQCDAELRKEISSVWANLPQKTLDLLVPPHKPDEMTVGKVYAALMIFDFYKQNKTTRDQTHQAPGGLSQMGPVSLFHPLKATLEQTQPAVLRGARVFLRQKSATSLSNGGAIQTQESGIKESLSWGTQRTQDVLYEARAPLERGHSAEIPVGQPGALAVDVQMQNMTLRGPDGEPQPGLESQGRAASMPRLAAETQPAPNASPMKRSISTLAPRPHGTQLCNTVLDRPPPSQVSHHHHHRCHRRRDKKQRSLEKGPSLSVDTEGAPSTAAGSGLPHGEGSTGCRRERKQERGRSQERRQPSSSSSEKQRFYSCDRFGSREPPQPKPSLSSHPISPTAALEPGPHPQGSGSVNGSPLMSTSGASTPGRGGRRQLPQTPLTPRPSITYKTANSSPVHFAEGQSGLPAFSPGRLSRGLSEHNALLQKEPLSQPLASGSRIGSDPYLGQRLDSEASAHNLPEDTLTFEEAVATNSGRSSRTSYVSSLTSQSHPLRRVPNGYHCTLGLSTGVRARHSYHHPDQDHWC
5-hydroxytryptamine receptor 6, sequence (P50406 whole entry): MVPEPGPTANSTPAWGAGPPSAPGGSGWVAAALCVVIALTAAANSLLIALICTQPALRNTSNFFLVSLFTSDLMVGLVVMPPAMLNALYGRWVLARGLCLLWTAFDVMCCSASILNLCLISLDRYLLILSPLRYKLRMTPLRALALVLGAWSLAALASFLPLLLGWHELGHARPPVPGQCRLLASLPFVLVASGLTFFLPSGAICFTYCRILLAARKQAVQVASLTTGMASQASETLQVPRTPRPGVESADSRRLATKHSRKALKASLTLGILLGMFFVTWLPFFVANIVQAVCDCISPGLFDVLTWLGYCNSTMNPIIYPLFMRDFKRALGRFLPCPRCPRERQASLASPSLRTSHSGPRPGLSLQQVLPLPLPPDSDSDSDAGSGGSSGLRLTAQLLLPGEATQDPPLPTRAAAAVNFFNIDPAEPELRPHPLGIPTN
Gamma-aminobutyric acid receptor subunit alpha-1/alpha-2/beta-2/gamma-2, sequence (P14867 whole entry): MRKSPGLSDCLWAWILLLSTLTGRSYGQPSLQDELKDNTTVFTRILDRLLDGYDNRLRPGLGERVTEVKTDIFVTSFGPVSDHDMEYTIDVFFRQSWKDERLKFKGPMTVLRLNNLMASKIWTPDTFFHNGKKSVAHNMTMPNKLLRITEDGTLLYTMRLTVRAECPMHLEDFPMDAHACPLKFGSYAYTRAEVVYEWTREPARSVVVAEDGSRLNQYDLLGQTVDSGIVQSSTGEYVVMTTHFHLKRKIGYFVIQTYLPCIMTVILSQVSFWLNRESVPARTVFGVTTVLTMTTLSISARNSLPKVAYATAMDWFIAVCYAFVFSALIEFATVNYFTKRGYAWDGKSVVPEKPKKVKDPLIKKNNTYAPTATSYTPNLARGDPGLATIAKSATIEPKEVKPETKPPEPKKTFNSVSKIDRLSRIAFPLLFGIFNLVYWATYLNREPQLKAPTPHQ
Gamma-aminobutyric acid receptor subunit alpha-1/alpha-2/beta-2/gamma-2, sequence (P47870 whole entry): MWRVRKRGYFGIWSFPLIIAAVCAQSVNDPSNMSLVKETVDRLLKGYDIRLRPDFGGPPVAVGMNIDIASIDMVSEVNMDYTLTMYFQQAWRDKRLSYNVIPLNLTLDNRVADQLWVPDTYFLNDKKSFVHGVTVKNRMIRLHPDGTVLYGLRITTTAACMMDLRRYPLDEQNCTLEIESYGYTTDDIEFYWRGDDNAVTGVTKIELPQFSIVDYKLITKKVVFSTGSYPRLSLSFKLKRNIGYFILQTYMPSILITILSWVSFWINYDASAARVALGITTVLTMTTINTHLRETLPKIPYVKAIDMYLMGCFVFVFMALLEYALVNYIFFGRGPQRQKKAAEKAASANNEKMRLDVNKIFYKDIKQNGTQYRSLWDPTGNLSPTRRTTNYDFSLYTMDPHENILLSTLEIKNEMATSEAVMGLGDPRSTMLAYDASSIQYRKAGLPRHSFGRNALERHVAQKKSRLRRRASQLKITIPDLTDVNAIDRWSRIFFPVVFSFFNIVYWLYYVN
Gamma-aminobutyric acid receptor subunit alpha-1/alpha-2/beta-2/gamma-2, sequence (P18507 whole entry): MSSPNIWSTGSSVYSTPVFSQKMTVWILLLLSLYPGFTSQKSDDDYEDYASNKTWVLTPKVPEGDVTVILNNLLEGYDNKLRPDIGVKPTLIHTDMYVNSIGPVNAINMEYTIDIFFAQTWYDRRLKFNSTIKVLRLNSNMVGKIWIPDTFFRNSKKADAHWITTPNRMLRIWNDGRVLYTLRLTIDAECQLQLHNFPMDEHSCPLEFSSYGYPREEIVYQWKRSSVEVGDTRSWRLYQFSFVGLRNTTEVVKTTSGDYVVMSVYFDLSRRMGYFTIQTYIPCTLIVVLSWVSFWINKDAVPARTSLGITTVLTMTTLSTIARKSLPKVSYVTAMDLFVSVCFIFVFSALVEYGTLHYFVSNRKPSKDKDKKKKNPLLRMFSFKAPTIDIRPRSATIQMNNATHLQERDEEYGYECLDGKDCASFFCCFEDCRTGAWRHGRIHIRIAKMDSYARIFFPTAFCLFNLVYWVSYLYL
Gamma-aminobutyric acid receptor subunit alpha-1/alpha-2/beta-2/gamma-2, sequence (P47869 whole entry): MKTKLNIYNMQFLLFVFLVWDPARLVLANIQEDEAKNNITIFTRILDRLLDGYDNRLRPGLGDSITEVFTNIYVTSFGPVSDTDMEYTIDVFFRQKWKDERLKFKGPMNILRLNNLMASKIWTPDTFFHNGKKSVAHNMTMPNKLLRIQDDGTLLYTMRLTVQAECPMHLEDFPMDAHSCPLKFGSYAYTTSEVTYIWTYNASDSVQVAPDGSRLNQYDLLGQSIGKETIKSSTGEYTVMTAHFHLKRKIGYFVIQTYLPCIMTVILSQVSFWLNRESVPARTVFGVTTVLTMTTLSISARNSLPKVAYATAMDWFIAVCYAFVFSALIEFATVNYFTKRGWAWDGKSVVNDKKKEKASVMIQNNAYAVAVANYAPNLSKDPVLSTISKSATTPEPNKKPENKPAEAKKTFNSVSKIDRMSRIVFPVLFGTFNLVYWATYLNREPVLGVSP
Histamine H2 receptor, sequence (P25021 whole entry): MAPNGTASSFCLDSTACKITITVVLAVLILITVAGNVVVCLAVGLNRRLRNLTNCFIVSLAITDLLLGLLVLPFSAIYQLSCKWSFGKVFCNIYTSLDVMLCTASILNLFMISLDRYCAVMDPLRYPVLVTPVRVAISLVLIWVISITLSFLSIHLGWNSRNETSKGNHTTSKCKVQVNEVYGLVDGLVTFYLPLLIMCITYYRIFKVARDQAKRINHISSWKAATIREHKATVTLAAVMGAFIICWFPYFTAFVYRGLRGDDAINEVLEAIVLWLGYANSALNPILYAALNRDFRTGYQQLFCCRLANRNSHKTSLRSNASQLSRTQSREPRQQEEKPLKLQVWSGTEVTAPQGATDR

Oc1ccc2c(c1)CC[C@H](c1ccccc1)[C@@H]2c1ccc(OCCN2CCCC2)cc1 [LASOFOXIFENE]
AC50 (Androgen receptor [1]): 23 µM

CN1CCN(C2=Nc3ccccc3Oc3ccc(Cl)cc32)CC1 [LOXAPINE]
AC50 [2]: > 10 µM
AC50 [3]: > 10 µM
AC50 [4]: 0.671 µM
AC50 [5]: 0.0574 µM
AC50 (D(1A) dopamine receptor): 0.102 µM
AC50 (Cannabinoid receptor 1): > 10 µM
AC50 [6]: 0.732 µM
AC50 [7]: > 30 µM

C[C@H](Cc1ccc(O)c(O)c1)[C@@H](C)Cc1ccc(O)c(O)c1 [MASOPROCOL]
AC50 (Histamine H1 receptor): > 30 µM

OC1(c2ccc(Cl)cc2)c2ccccc2C2=NCCN21 (centres undefined) [MAZINDOL]
AC50 [2]: > 10 µM
AC50 [3]: > 10 µM
AC50 [4]: > 10 µM
AC50 [5]: > 10 µM
AC50 (D(1A) dopamine receptor): > 10 µM
AC50 (Cannabinoid receptor 1): > 10 µM
AC50 (Histamine H2 receptor): > 10 µM
AC50 [8]: > 10 µM
AC50 [6]: > 10 µM
AC50 [9]: > 50 µM
AC50 (Androgen receptor [1]): > 30 µM
AC50 (Androgen receptor [10]): > 30 µM
AC50 [7]: > 30 µM

CC12CC3CC(C)(C1)CC(N)(C3)C2 [MEMANTINE]
AC50 [3]: > 10 µM
AC50 (Histamine H1 receptor): > 30 µM
AC50 [7]: 20.1 µM

CN(C)CCCNc1c2ccccc2nc2cccc([N+](=O)[O-])c12 [NITRACRINE]
AC50 (Androgen receptor [1]): > 30 µM

CCOC(=O)C1=C(C)NC(C)=C(C(=O)OC)C1c1cccc([N+](=O)[O-])c1 (centres undefined) [NITRENDIPINE]
AC50 [3]: > 10 µM
AC50 (D(1A) dopamine receptor): > 10 µM
AC50 (Histamine H2 receptor): > 10 µM
AC50 [8]: > 10 µM
AC50 [9]: 5 µM
AC50 [7]: 15.1 µM

O=[N+]([O-])c1ccc(O)c2ncccc12 [NITROXOLINE]
AC50 [11]: > 30 µM

[H]/N=C(/N)N/C(=N/[H])NCCc1ccccc1 [PHENFORMIN]
AC50 [3]: > 10 µM
AC50 (D(1A) dopamine receptor): > 10 µM
AC50 (Histamine H2 receptor): > 10 µM
AC50 [8]: 6.71 µM
AC50 [7]: > 30 µM

CC(N)C(O)c1ccccc1 (centres undefined) [PHENYLPROPANOLAMINE]
AC50 [2]: > 10 µM
AC50 [3]: > 10 µM
AC50 [4]: > 10 µM
AC50 [5]: > 10 µM
AC50 (D(1A) dopamine receptor): > 10 µM
AC50 (Cannabinoid receptor 1): > 10 µM
AC50 (Histamine H2 receptor): > 10 µM
AC50 [8]: > 10 µM
AC50 [6]: > 10 µM
AC50 [7]: > 30 µM

Clc1ccc2c(N3CCN(CCCN4CCN(c5ccnc6cc(Cl)ccc56)CC4)CC3)ccnc2c1 [PIPERAQUINE]
AC50 (Androgen receptor [1]): > 30 µM

CCCN[C@H]1CCc2nc(N)sc2C1 [PRAMIPEXOLE]
AC50 (Histamine H2 receptor): 3.86 µM

CNCc1ccc(-c2[nH]c3cc(F)cc4c3c2CCNC4=O)cc1 [RUCAPARIB]
AC50 (Androgen receptor [10]): > 30 µM

CCC(=O)O[C@H]1CC[C@H]2[C@@H]3CCC4=CC(=O)CC[C@]4(C)[C@H]3CC[C@]12C [TESTOSTERONE PROPIONATE]
AC50 (Androgen receptor [10]): 1.7 µM

Cc1cccc(N2CC(CO)OC2=O)c1 (centres undefined) [TOLOXATONE]
AC50 (Androgen receptor [1]): > 30 µM

CCC(C)C(CC)C(N)=O (centres undefined) [VALNOCTAMIDE]
AC50 [11]: > 30 µM
AC50 (Histamine H1 receptor): > 30 µM
AC50 (Androgen receptor [1]): > 30 µM

Cc1cc(C(C)(C)C)cc(C)c1CC1=NCCN1 [XYLOMETAZOLINE]
AC50 [11]: > 30 µM
AC50 [8]: 0.03 µM
